Results taken from patent US20080300303A1, “Substances and Pharmaceutical Compositions for the Inhibition of Glyoxalases and Their Use As Anti-Fungal Agents” (priority 2005, published 2008).
pIC50: −log10 of the molar value. Where a name gives a salt, the structure may show the parent alone.

Columns and labels:
[1] = system: primary human skin fibroblasts; experiment: Vitality of primary human fibroblasts (dye exclusion count); format: cell-based; conditions: 1-50 mM, 24 hours, serum free medium, FIG. 7
Experimental: An identical number (10^4 cells per well) of primary human skin fibroblasts were inoculated in 24-well plates (Greiner, no. 662160) and were cultured in DMEM (Gibco; no. 41966-092) in the presence of 10% calf serum (Biochrom, S0113/5), 2 mM L-glutamine (Gibco; no. 25030-024), penicillin/streptomycin (100 units penicillin/ml; 100 μg streptomycin/ml, Gibco; no. 15140/122), 5 mg % ascorbic acid (Serva, no. 14030.02) at 37° C., 5% CO2 and 95% humidity. The primary human fibroblasts were prepared according to the instructions of Birkenmeier et al. (1998). After reaching 50% confluency the medium was by fresh serum free medium. Thereafter the following supplements were added to the cells: preparation 1 (equivalent volume of serum free (SF) medium, blank); preparation 2 (1 mM DEL or 1 mM LEL or 1 mM EP); preparation 3 (5 mM DEL or 5 mM LEL or 5 mM EP), preparation 4 (10 mM DEL or 10 mM LEL or 10 mM EP), preparation 5 (20 mM DEL or 20 mM LEL or 20 mM EP), preparation 6 (50 mM DEL or 50 mM LEL or 50 mM EP). The culture was continued at 37° C., 5% CO2 and 95% humidity for 24 hours. Thereafter the supernatants were removed and 100 μl of a 50% […] solution was added to the wells. After washing the cells with medium the unstained and stained cells were counted under the light optical microscope comprising a coordinate plane. Cells stained blue were assessed as avital, unstained cells as vital. The percentage of unstained cells of the total number of cells corresponds to the vitality of the cells.

yeast glyoxalase I = molecular target: T1, yeast glyoxalase I (Saccharomyces cerevisiae, UniProt P50107); experiment: Enzymatic activity of yeast glyoxalase I; format: biochemical; conditions: for Inhibition of the reaction of yeast glyoxalase I: increasing concentrations (FIG. 1-3; 0-30 mM in FIG. 3)
T1 construct: purchased Sigma G-4252
T1 sequence (P50107 1-326): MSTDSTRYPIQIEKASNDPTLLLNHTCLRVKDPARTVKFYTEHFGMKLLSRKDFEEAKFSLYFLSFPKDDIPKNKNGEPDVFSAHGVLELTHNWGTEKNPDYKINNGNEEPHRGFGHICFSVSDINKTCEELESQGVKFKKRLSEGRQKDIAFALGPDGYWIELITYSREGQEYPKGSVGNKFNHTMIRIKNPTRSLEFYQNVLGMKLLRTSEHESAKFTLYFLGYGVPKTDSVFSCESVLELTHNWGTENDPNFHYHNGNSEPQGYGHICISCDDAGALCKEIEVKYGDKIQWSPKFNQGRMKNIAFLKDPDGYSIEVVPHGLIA
Experimental: Measuring glyoxalase I (E.C.4.4.1.5, lactoyl-glutathione lyase Sigma, G-4252) was performed according to the instructions of McLellan and Thornalley (1989). The principle is based on measuring the initial rate of formation of S-D-lactoyl-glutathione from methylglyoxal (Sigma, M0252, 40%) and reduced L-glutathione (Aldrich, G-4251, >99%). The formation of the product is observed using the extinction coefficient e=2.86 mM−1 cm−1 at 240 nm. The measurement was performed in 50 mM sodium phosphate buffer, pH 7.0. For that purpose 2 mM methylglyoxal and 2 mM reduced glutathione were incubated for 2 minutes at 30° C. for the formation of the hemithioacetal. Thereafter 20 μl of a 1 to 1000 dilution of the glyoxalase I (Sigma, G-4252) was added to 1 ml of the measuring reagent to start the reaction.
Glyoxalase activity (IU) corresponds to the amount of enzyme forming 1 μmol of S-D-lactoyl-glutathione/min.
Determination of glyoxalase I activity was performed according to the general protocol as described above. The influence of ethyl pyruvate on enzyme activity was investigated by addition of increasing concentrations of EP (Sigma; no. E4,780-8; lot. S18972-513) to the measuring reagent.
Determination of glyoxalase I activity was performed according to the general protocol as described above. The influence of compounds of the general formula (I), (II), and (III) on the activity of the enzyme was investigated by addition of increasing concentrations of these compounds to the preparation. The IC50-values were calculated from inhibition curves of each compound.
Determination of glyoxalase I activity . . . was performed according to the general protocol as described above. The influence of 2-oxopropanethioic acid S-ethyl ester on the activity of the enzyme was investigated by addition of increasing concentrations of SE to the preparation for the measurement.
Determination of glyoxalase I activity was performed according to the general protocol as described above. The influence of effectors on the enzymatic activity was investigated by addition of increasing concentrations (0-30 mM) of EP (Sigma; no. E4,780-8; lot. S18972-513) (triangle), BP (prepared according to the instructions of patent JP 11080089; 98%) (circle) and BL (Fluka, 69819; lot. 443090/1 21503090) (squares) to the measuring reagent (FIG. 3).

[2] = system: Saccharomyces cerevisiae HD65-5a; experiment: Growth of yeast cells, O.D. at 600 nm; conditions: increasing concentrations, (FIG. 8, Table 5)
Experimental: A colony of strain HD 65-5a (Saccharomyces cerevisiae) was inoculated in 5 ml YPD-medium [(2% glucose (Fluka), 1% yeast extract (BD, Sparks), 2% peptone (BD, Sparks)] in a rotating 20 ml glass tube and was incubated overnight at 30° C. At an O.D. of 12.9 (580 nm) a starting density of O.D. 0.19 was adjusted by dilution with a culture medium.
The culture was aliquoted to 10 ml (in 20 ml glass tubes), and the respective test substances were added. The aliquots were incubated at 30° C. under continuous rotation of the tubes (200 U/min). At the indicated times, samples were removed and optical density was determined at a wavelength of 600 nm.
A colony of Saccharomyces strain HD65-5a was cultured as describe above.
After defined intervals 1 ml samples were removed and the O.D. was measured at 600 nm.
A colony of Saccharomyces strain HD65-5a was cultured as describe above. […] Samples of 1 ml were taken after 8 hours and were measured at 600 nm.

[3] = system: fluconazole resistant Candida albicans strain A435 5; experiment: Growth of fluconazole resistant Candida albicans, O.D. at 600 nm; format: cell-based
Experimental: A colony of the fluconazole resistant Candida albicans strain A435 5 was cultured in the same medium and under the same conditions as used for Saccharomyces HD65-5a.
At an O.D. of 14.4 (600 nm) a starting density of O.D. 0.20 was set by dilution with culture medium.
(§1) Samples of 1 ml were taken after 5 hours and the O.D. at 600 nm was determined as a standard for the cell number. The resistance against fluconazole was determined according to the guidelines of NCCLS (1997). Resistance is defined as growth at a dosage of a ≧64 μg/ml of fluconazole.

[4] = system: fluconazole sensitive Candida albicans strain R/HO13; experiment: Growth of fluconazole sensitive Candida albicans, O.D. at 600 nm; format: cell-based
Experimental: A colony of the fluconazole sensitive Candida albicans strain R/HO13 was cultured as described above. […] Samples of 1 ml were taken after 9 hours and the O.D. was measured at 600 nm.

[5] = molecular target: T2, glyoxalase II of human erythrocytes (Homo sapiens, UniProt Q16775); experiment: Enzymatic activity of human erythrocyte glyoxalase II; format: biochemical; conditions: 0-20 mM, FIG. 6
T2 construct: from tissue; host or cells: human erythrocyte hemolysate
Experimental: The determination of erythrocyte glyoxalase II (E.C.3.1.2.6., hydroxyacyl glutathione hydrolase) was performed according to the instructions of McLellan and Thornalley (1989). The principle is based on determining the initial hydrolysis of S-D-lactoyl-glutathione (L 7140, Sigma—Aldrich Chemie GmbH) in the presence of low amounts of a cell extract. Hydrolysis is observed on the basis of the reduction of the extinction at 240 nm (e=−3.1 mM−1 cm−1). Glyoxalase II activity (IU) correlates to the amount of enzyme hydrolysing 1 μmol of S-D-lactoyl-glutathione/min. The measurement was performed in 100 mM Tris-HCl buffer, pH 7.4. For this purpose 0.4 mM S-D-lactoyl-glutathione was added to 1 ml of the measuring reagent and the reaction was started by addition of suitable amounts (5-100 μl) of an erythrocyte hemolysate. The erythrocyte lysate was prepared according to the instructions of Mannervik et al. (1982).
Determination of glyoxalase II activity was performed according to the general protocol as described above. The influence of ethyl pyruvate on the activity of the enzyme was investigated by addition of increasing concentrations of EP (Sigma, no. E 4,780-8; lot. S18972-513) (0-20 mM) to the measuring reagent.

yeast glyoxalase II = experiment: Enzymatic activity of yeast glyoxalase II (cell free extract); format: biochemical, Saccharomyces cerevisiae; conditions: 0-20 mM, FIG. 4
Experimental: Protein concentration of the cell free extract was determined according to the Bradford method (Bradford, 1976).
The activity of the glyoxalase II (Hydroxyacyl glutathione hydrolase, E.C. 3.1.2.6.) was determined according to the instructions of Martins et al. (1999) in 0.1 M MES buffer, pH 6.5, 1.5 mM S-D-lactoyl-glutathione (L7140, Sigma-Aldrich Chemistry GmbH) and 0.75 mM DTNB (Sigma, D8130). After addition of suitable amounts of cell extract and an incubation period of 15 min at 25° C. the formation of glutathione was measured at 412 nm (ε=13.6 mM^−1 cm^−1). The activity of the glyoxalase II (IU) correlates with the amount of enzyme hydrolysing 1 μmol of S-D-lactoyl-glutathion/min.
The influence of ethyl pyruvate on the activity of the enzyme was investigated by adding increasing concentrations of EP (Sigma, No. E4,780-8; Lot. S18972-513) (0-20 mM) to the measurement reagent.

Candida albicans [6] = experiment: Mouth lavage in a patient suffering from candidiasis; format: in vivo; conditions: lavage 10 ml 75 mM ethyl pyruvate, 1% glucose in saline, 3 times daily over 4 days
Experimental: A patient with a diagnosis of diabetes mellitus (presenting with a fasting blood sugar level of 6.88 mM) complained about dryness in the mouth, chapped lips and white blotchy alterations of the oral mucosa.

[7] = system: Candida albicans, Candida krusei, Candida tropicalis, Candida glabrata, Candida parapsilosis; experiment: Agar dilution antimicrobial susceptibility test; format: cell-based, Candida spp.; conditions: 12.5 mM to 40 mM in agar, 37° C., 20 hours, FIG. 9
Experimental: Control agar plates were prepared without EP.

[8] = molecular target: T3, glyoxalase I of human erythrocytes (Homo sapiens, UniProt Q04760); experiment: Enzymatic activity of human erythrocyte glyoxalase I; format: biochemical; conditions: 0-50 mM, FIG. 5
T3 construct: from tissue; host or cells: human erythrocyte lysate
T3 sequence (Q04760 2-184 limits assumed): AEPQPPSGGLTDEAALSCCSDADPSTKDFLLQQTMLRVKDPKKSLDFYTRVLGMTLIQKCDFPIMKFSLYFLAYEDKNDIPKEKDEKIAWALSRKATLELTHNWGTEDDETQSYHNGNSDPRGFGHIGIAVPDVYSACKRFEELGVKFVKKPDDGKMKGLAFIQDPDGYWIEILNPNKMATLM
Experimental: The determination of glyoxalase I was performed as described above for the yeast enzyme. After the formation of the hemithioacetal, suitable amounts (5 to 100 μl) of an erythrocyte lysate were added to 1 ml of the measuring reagent to start the reaction. The erythrocyte lysate was prepared according to the instructions of Mannervik et al. (1982).
Glyoxalase activity (IU) corresponds to the amount of enzyme forming […] of S-D-lactoyl-glutathione/min.
Determination of glyoxalase I activity was performed according to the general protocol as described above. The influence of ethyl pyruvate on enzyme activity was investigated by addition of increasing concentrations of EP (Sigma; no. E4,780-8; lot. S18972-513) (0-50 mM) to the measuring reagent.

Candida albicans [9] = experiment: Fluconazole susceptibility according to NCCLS guidelines; format: cell-based
Experimental: as §1
The strain was sensitive against fluconazole at a dosage of ≦0.13 μg/ml.

SMILES | Toxicity / vitality of primary human fibroblasts [1] | Inhibition of the reaction of yeast glyoxalase I (yeast glyoxalase I) | Inhibition of growth of fluconazole resistant Candida albicans cells [3] | pIC50 (yeast glyoxalase I) | also measured
CCOC(=O)[C@@H](C)O [(+)-Ethyl D-Lactate] | not toxic |  |  |  | 
CCCCOC(=O)[C@H](C)O [(−)-Butyl L-Lactate] |  | does not influence |  |  | 
CCOC(=O)[C@H](C)O [(−)-Ethyl L-Lactate] | not toxic |  |  |  | Inhibition of growth of yeast cells [2]: did not influence growth
CCCCOC(=O)C(C)=O [Butyl pyruvate] |  | inhibit | inhibit | 2.12 | Inhibition of growth of fluconazole sensitive Candida albicans cells [4]: inhibit; Inhibition of growth of yeast cells [2]: inhibit
CCOC(=O)C(=O)OCC [Diethyl oxalate, reference compound] |  |  |  | < 1.30 | 
CCOC(=O)C(=O)CC [Ethyl 2-oxobutyrate] |  |  | inhibit | 2.74 | 
CCOC(=O)C(C)=O [Ethyl pyruvate] | not toxic |  | inhibit | 2.00 | Inhibition of the reaction of glyoxalase II of human erythrocytes [5]: inhibits; Inhibition of growth of fluconazole sensitive Candida albicans cells [4]: inhibit; Inhibition of the reaction of yeast glyoxalase II (yeast glyoxalase II): inhibits; Reduction of germ number in lavage of the oral cavity (Candida albicans [6]): < 5%; Inhibition of growth of yeast cells ([2]; listed as EP): inhibit; Inhibition of growth and proliferation of different fungi (1-7) [7]: effectively inhibits; Inhibition of the reaction of yeast glyoxalase I (yeast glyoxalase I; listed as EP): inhibit; Inhibition of the reaction of glyoxalase I of human erythrocytes [8]: inhibits
COC(=O)C(C)=O [Methyl pyruvate] |  |  |  | 1.82 | 
CCSC(=O)C(C)=O [SE, 2-Oxopropanethioic acid S-ethyl ester] |  | inhibits |  |  | 
OC(Cn1cncn1)(Cn1cncn1)c1ccc(F)cc1F [fluconazole] |  |  |  |  | Fluconazole dosage at which growth defines resistance (Candida albicans [9]; strain A435 5, NCCLS (1997)): ≥ 64 µg/mL; Fluconazole dosage at which the strain was sensitive (Candida albicans [9]; strain R/HO13): ≤ 0.13 µg/mL
